{"source": "patent US10830772B2", "about": "“Detection method and kit” (The European Union, represented by the European Commission, priority 2015, dated 2020)", "tested_on": "AhR2 from zebrafish", "experiment": "Fluorescence binding of the ligand probe to recombinant AhR protein (excitation 280 nm, emission 450 nm)", "description": "The inventors expressed the encoding gene sequence for the AhR2 from zebrafish in Escherichia coli cells to produce the high yield of a 600 amino acid recombinant protein. The protein was purified by using Histidine tag affinity column. The protocol used allowed to obtain a good yield of pure protein that is correctly folded.\nThe inventors developed an assay for the Aryl Hydrocarbon Receptor binding activity as an alternative to known methods and investigated which molecules are the most suitable for building a competitive binding assay as in vitro ligands, and to make these molecules fluorescent or more fluorescent. […] The same concentration of ethyl 5,11-dihydroindolo[3,2-b]carbazole-6-carboxylate in aqueous buffer environment has a very low fluorescence signal (FIG. 1, bottom line at 328 nm). […] Indeed if ethyl 5,11-dihydroindolo[3,2-b]carbazole-6-carboxylate is a ligand of AhR it moves from an aqueous environment (buffer) to a more hydrophobic environment (hydrophobic internal binding site of the AhR receptor), causing the increase in fluorescence emission at 450 nm.", "data": [{"smiles": "CCOC(=O)c1c2[nH]c3ccccc3c2cc2[nH]c3ccccc3c12", "note": "[ethyl 5,11-dihydroindolo[3,2-b]carbazole-6-carboxylate]", "values": [{"measurement": "fluorescence emission on addition to the AhR (binding into the active site)", "setting": "excited at 280 nm, buffer environment, FIG. 1", "result": "causes the appearance of an emission peak with maximum at 450 nm"}, {"measurement": "binding affinity to AhR", "setting": "result in words, suitability for competitive binding assays", "result": "high enough to allow the competition of other compounds to the receptor, yet not too high"}]}]}
